In ChEMBL document CHEMBL5678818, “Discovery of potent SOS1 inhibitors that block RAS activation via disruption of the RAS-SOS1 interaction” (Proc Natl Acad Sci U S A, 2019):

Assays:
[1] = molecular target: T1, Mitogen-activated protein kinase kinase kinase 2 (Homo sapiens) (UniProt Q9Y2U5); experiment: Inhibition of MAP3K2 (unknown origin) assessed as residual activity at 100 nM by KINOMEscan analysis relative to control
T1 sequence (whole entry): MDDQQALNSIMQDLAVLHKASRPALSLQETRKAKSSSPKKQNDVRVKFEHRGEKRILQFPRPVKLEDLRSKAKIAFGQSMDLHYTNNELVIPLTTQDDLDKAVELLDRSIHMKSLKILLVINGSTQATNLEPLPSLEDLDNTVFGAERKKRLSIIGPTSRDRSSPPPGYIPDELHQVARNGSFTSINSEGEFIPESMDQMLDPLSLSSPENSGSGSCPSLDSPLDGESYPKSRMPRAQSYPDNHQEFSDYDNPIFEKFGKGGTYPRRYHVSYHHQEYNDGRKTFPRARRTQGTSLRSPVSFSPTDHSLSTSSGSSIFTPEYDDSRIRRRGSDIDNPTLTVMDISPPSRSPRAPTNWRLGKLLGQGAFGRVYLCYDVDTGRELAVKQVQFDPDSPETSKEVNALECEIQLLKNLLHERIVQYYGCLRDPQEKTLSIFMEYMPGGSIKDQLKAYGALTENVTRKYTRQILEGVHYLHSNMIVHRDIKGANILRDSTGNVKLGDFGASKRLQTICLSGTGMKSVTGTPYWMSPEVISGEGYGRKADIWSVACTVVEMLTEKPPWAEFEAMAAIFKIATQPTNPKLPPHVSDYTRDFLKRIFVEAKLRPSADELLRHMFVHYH

[2] = molecular target: MAP kinase-interacting serine/threonine-protein kinase 2 (Homo sapiens) (UniProt Q9HBH9); experiment: Inhibition of MKNK2 (unknown origin) assessed as residual activity at 100 nM by KINOMEscan analysis relative to control
[3] = molecular target: Dual specificity mitogen-activated protein kinase kinase 1 (Homo sapiens) (UniProt Q02750); experiment: Inhibition of MEK1 (unknown origin) assessed as residual activity at 100 nM by KINOMEscan analysis relative to control
[4] = molecular target: T2, Rhodopsin kinase GRK7 (Homo sapiens) (UniProt Q8WTQ7); experiment: Inhibition of GRK7 (unknown origin) assessed as residual activity at 100 nM by KINOMEscan analysis relative to control
T2 sequence (whole entry): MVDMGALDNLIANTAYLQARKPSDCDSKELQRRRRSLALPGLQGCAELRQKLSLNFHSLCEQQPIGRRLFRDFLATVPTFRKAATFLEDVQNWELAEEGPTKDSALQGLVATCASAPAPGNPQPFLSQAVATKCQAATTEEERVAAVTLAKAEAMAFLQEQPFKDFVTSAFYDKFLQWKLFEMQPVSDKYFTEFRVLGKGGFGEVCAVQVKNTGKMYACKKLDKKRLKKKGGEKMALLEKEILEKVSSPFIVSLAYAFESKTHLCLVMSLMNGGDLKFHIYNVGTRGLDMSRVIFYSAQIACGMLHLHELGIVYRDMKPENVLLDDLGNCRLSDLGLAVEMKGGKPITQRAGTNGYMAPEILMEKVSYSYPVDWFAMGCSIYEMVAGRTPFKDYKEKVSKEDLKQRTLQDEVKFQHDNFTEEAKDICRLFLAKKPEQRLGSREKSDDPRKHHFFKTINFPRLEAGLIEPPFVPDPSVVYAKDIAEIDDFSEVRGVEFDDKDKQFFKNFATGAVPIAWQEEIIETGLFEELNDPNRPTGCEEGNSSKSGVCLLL

[5] = molecular target: Tyrosine-protein kinase ABL1 (Homo sapiens) (UniProt P00519); experiment: Inhibition of phosphorylated ABL1 (unknown origin) assessed as residual activity at 100 nM by KINOMEscan analysis relative to control
[6] = molecular target: Wee1-like protein kinase 2 (Homo sapiens) (UniProt P0C1S8); experiment: Inhibition of WEE2 (unknown origin) assessed as residual activity at 100 nM by KINOMEscan analysis relative to control
[7] = molecular target: BDNF/NT-3 growth factors receptor (Homo sapiens) (UniProt Q16620); experiment: Inhibition of TRKB (unknown origin) assessed as residual activity at 100 nM by KINOMEscan analysis relative to control
[8] = molecular target: SRSF protein kinase 2 (Homo sapiens) (UniProt P78362); experiment: Inhibition of SRPK2 (unknown origin) assessed as residual activity at 100 nM by KINOMEscan analysis relative to control
[9] = molecular target: T3, Dual specificity mitogen-activated protein kinase kinase 4 (Homo sapiens) (UniProt P45985); experiment: Inhibition of MEK4 (unknown origin) assessed as residual activity at 100 nM by KINOMEscan analysis relative to control
T3 sequence (whole entry): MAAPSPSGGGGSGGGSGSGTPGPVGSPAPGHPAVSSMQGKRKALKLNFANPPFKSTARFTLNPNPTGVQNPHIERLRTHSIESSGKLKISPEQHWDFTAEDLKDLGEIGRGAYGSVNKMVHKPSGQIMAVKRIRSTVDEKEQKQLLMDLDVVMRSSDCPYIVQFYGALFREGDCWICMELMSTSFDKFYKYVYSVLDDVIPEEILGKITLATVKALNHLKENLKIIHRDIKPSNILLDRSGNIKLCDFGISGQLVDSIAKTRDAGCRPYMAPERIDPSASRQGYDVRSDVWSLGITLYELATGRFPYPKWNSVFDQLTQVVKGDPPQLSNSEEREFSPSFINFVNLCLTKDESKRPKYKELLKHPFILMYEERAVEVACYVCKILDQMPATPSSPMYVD

[10] = molecular target: T4, Calcium/calmodulin-dependent protein kinase type IV (Homo sapiens) (UniProt Q16566); experiment: Inhibition of CAMK4 (unknown origin) assessed as residual activity at 100 nM by KINOMEscan analysis relative to control
T4 sequence (whole entry): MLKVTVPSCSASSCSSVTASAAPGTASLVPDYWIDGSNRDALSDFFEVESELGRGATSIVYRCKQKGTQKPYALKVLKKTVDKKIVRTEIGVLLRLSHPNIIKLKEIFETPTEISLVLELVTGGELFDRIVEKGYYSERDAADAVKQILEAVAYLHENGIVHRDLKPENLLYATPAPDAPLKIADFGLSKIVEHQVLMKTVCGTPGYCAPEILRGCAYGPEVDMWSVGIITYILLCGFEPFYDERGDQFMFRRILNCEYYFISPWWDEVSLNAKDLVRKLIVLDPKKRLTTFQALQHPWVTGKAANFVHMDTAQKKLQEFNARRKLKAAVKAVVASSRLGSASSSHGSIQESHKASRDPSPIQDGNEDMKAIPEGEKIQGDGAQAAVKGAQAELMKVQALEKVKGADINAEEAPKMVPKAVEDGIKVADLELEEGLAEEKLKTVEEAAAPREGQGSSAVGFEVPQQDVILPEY

[11] = system: Receptor-type tyrosine-protein kinase FLT3 (Homo sapiens), P36888 [N841I]; experiment: Inhibition of FLT3 N841I mutant (unknown origin) assessed as residual activity at 100 nM by KINOMEscan analysis relative to control
[12] = molecular target: ALK tyrosine kinase receptor (Homo sapiens) (UniProt Q9UM73); experiment: Inhibition of ALK (unknown origin) assessed as residual activity at 100 nM by KINOMEscan analysis relative to control
Sequence of ALK tyrosine kinase receptor (Homo sapiens) (Q9UM73 19-1620 limits assumed): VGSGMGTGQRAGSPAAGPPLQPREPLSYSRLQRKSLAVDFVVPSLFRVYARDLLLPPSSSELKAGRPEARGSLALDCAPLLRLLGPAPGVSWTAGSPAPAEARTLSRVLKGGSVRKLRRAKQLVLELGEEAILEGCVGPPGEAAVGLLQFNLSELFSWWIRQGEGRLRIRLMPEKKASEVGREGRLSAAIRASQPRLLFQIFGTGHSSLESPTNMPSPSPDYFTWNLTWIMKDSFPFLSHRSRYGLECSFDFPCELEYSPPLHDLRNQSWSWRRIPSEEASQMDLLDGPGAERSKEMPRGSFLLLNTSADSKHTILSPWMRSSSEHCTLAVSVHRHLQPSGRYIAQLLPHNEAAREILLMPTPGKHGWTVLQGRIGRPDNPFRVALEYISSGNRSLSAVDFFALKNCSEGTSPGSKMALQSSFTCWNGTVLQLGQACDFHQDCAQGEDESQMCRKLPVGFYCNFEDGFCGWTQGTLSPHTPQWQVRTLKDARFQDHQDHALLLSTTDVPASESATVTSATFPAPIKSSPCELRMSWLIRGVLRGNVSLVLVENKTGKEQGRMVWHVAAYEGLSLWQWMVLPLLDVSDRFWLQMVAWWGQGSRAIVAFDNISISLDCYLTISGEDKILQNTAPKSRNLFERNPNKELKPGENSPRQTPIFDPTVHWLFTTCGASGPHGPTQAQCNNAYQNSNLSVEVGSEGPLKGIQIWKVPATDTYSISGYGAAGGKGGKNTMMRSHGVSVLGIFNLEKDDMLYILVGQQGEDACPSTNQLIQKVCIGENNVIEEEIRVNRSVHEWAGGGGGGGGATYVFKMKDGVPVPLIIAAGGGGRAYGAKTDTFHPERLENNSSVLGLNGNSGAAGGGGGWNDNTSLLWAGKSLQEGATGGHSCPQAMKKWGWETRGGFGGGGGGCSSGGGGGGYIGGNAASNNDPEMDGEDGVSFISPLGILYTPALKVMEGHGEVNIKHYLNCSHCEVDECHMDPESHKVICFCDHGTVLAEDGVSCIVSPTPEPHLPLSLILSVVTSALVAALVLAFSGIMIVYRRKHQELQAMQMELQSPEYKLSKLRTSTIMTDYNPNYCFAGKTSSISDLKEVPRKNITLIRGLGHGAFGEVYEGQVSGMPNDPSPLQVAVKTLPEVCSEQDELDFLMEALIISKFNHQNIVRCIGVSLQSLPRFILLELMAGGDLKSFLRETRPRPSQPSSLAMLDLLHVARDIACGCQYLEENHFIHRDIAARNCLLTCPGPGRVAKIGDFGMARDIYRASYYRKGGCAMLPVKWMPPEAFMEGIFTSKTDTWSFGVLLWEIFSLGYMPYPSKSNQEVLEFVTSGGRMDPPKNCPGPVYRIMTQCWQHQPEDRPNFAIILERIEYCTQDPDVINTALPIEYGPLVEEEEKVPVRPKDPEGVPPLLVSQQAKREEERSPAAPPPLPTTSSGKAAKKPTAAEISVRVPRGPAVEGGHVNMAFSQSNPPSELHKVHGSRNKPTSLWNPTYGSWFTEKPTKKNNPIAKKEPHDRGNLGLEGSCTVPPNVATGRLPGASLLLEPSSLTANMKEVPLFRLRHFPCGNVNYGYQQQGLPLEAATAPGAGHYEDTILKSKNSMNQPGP

Sequence of Tyrosine-protein kinase ABL1 (Homo sapiens) (P00519 whole entry): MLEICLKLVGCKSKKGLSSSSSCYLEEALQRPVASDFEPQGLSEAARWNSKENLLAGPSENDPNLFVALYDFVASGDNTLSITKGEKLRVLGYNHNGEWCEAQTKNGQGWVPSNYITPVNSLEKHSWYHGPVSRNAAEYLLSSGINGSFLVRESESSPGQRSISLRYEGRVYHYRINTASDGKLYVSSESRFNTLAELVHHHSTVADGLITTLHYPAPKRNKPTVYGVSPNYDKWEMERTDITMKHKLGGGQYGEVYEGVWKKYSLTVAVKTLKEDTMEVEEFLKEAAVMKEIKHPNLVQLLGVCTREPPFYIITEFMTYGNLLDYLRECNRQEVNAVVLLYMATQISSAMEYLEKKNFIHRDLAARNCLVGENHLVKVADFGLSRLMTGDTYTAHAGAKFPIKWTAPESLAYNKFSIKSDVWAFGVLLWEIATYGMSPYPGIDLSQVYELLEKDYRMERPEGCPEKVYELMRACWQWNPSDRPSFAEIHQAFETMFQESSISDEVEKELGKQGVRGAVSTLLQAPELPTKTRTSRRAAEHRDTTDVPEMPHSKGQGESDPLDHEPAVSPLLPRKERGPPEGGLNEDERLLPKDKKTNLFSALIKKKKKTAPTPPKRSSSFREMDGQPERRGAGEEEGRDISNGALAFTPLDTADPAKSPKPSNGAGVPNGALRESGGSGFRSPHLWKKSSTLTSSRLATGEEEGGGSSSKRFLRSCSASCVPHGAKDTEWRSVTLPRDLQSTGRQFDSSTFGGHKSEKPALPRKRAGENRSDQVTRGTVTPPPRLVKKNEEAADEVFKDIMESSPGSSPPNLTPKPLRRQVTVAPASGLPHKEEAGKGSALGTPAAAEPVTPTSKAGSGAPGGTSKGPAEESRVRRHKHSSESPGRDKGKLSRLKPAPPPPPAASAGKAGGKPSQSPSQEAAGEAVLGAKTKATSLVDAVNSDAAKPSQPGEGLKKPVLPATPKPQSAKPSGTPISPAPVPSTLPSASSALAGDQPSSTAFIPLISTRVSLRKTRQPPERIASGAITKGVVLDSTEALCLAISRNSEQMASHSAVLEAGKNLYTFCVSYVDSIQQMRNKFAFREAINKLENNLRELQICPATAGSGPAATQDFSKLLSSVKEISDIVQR
Sequence of Wee1-like protein kinase 2 (Homo sapiens) (P0C1S8 whole entry, looked up): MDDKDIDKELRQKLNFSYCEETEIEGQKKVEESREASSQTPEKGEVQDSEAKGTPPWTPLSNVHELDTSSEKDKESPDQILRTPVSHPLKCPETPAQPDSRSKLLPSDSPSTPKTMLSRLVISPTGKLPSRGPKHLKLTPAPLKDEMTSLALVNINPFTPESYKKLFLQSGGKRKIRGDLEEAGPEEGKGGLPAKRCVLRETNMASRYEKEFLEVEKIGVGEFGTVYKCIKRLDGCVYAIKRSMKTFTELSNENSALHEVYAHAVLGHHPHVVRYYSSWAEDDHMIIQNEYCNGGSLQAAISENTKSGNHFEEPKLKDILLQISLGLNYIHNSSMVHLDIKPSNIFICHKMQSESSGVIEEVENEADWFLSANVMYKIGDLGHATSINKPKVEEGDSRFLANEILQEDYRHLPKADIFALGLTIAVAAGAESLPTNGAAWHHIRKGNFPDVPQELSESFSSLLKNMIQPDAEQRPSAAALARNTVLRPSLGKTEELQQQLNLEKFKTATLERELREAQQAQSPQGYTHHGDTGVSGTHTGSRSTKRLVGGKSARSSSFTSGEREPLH
Sequence of BDNF/NT-3 growth factors receptor (Homo sapiens) (Q16620 32-822 limits assumed): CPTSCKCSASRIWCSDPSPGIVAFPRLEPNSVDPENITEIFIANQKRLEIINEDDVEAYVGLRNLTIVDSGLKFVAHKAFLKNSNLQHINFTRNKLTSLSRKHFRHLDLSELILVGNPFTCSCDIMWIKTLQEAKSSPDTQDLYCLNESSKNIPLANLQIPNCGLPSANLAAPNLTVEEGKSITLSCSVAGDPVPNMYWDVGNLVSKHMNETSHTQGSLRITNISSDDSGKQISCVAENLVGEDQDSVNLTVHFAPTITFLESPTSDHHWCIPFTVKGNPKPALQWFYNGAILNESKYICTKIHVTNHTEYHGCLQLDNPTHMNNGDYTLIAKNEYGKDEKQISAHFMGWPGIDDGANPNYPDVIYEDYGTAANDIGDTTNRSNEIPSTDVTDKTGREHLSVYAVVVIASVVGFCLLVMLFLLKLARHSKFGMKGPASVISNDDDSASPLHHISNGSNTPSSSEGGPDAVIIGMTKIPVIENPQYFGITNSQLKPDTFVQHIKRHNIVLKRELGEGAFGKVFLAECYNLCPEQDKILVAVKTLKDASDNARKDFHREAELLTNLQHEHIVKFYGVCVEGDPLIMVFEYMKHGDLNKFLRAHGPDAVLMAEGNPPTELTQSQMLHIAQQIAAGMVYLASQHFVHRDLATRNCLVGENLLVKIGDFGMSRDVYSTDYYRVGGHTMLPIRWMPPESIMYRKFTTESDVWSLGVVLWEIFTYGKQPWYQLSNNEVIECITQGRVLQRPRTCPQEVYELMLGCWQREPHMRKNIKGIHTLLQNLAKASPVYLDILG
Sequence of SRSF protein kinase 2 (Homo sapiens) (P78362 whole entry, looked up): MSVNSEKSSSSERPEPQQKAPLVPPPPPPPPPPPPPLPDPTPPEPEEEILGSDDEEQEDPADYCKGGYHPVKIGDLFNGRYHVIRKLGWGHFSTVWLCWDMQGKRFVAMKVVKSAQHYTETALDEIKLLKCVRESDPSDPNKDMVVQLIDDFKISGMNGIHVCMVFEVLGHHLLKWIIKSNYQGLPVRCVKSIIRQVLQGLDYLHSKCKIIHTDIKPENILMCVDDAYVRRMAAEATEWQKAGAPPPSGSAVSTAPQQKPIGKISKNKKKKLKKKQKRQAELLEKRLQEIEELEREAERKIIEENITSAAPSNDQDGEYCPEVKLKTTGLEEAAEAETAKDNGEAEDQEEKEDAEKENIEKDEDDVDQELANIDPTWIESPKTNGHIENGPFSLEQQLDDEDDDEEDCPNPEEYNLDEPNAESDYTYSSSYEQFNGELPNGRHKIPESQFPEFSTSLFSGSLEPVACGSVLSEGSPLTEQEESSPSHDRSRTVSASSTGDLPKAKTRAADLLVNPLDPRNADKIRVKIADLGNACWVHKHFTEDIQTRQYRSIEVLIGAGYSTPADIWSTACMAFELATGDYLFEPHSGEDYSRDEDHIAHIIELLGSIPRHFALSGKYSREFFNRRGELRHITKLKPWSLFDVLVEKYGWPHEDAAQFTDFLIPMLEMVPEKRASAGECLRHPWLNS

COc1cc2ncnc(N[C@H](C)c3cccc4ccccc34)c2cc1OC
Activity [1]: 87% | Activity [2]: 89% | Activity [3]: 98% | Activity [4]: 84% | Activity [5]: 93% | Activity [6]: 100% | Activity [7]: 96% | Activity [8]: 92% | Activity [9]: 93% | Activity [10]: 100% | Activity [11]: 100% | Activity [12]: 87%
